{"source": "PubChem BioAssay AID256", "about": "(DTP/NCI, 2004)", "test_system": "CD2F1 mice, L1210 leukemia ip, survival T/C", "assay": "NCI In Vivo Anticancer Drug Screen. Data for tumor model L1210 Leukemia (intraperitoneal) in CD2F1 (CDF1) mice", "settings": "higher = longer survival", "outline": "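Mice carrying a transplanted tumor received test compound or vehicle alone. The value is the measurement in the treated group divided by that in the vehicle-treated control group.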", "key": {"[1]": {"settings": "endpoint: mean survival time, dose: 100.0 mg/kg/injection, schedule: Q01DX009 (ip), vehicle: saline with Tween-80"}, "[2]": {"settings": "endpoint: mean survival time, dose: 100.0 mg/kg/injection, schedule: Q04DX003 (ip), vehicle: saline with Tween-80"}, "[3]": {"settings": "endpoint: mean survival time, dose: 200.0 mg/kg/injection, schedule: Q04DX003 (ip), vehicle: saline with Tween-80"}, "[4]": {"settings": "endpoint: mean survival time, dose: 400.0 mg/kg/injection, schedule: Q04DX003 (ip), vehicle: saline with Tween-80"}, "[5]": {"settings": "endpoint: mean survival time, dose: 100.0 mg/kg/injection, schedule: Q01DX001 (ip), vehicle: saline with Tween-80"}, "[6]": {"settings": "endpoint: mean survival time, dose: 200.0 mg/kg/injection, schedule: Q01DX001 (ip), vehicle: saline with Tween-80"}, "[7]": {"settings": "endpoint: mean survival time, dose: 400.0 mg/kg/injection, schedule: Q01DX001 (ip), vehicle: saline with Tween-80"}}, "note": "Several values for one entry are separate records, joined by “and”; a condition that tells them apart may be missing. Equal entries are not always repeated. Inconclusive results and toxic doses are left out."}
{"compound": "CCOC(=O)c1ccc(NC(=O)OCc2ccco2)cc1", "values": [{"measurement": "T/C", "setting": "[1]", "result": "92 % of control and 98 % of control"}, {"measurement": "T/C", "setting": "endpoint: mean survival time, dose: 100.0 mg/kg/injection, schedule: Q04DX002 (ip), vehicle: saline with Tween-80", "result": "88 % of control and 102 % of control"}, {"measurement": "T/C", "setting": "[2]", "result": "94 % of control"}, {"measurement": "T/C", "setting": "endpoint: mean survival time, dose: 200.0 mg/kg/injection, schedule: Q01DX009 (ip), vehicle: saline with Tween-80", "result": "92 % of control and 100 % of control"}, {"measurement": "T/C", "setting": "endpoint: mean survival time, dose: 200.0 mg/kg/injection, schedule: Q04DX002 (ip), vehicle: saline with Tween-80", "result": "86 % of control and 91 % of control"}, {"measurement": "T/C", "setting": "[3]", "result": "87 % of control"}, {"measurement": "T/C", "setting": "endpoint: mean survival time, dose: 400.0 mg/kg/injection, schedule: Q01DX009 (ip), vehicle: saline with Tween-80", "result": "113 % of control and 96 % of control"}, {"measurement": "T/C", "setting": "endpoint: mean survival time, dose: 400.0 mg/kg/injection, schedule: Q04DX002 (ip), vehicle: saline with Tween-80", "result": "87 % of control and 88 % of control"}, {"measurement": "T/C", "setting": "[4]", "result": "89 % of control"}]}
{"compound": "COC(=O)Nc1cccc(OC(=O)N(C(C)C)C(C)C)c1", "values": [{"measurement": "T/C", "setting": "[2]", "result": "94 % of control"}, {"measurement": "T/C", "setting": "[3]", "result": "97 % of control"}, {"measurement": "T/C", "setting": "[4]", "result": "96 % of control"}]}
{"compound": "S=C(Nc1ccccc1)Nc1ccccn1", "values": [{"measurement": "T/C", "setting": "[5]", "result": "97 % of control"}, {"measurement": "T/C", "setting": "[6]", "result": "105 % of control"}, {"measurement": "T/C", "setting": "[7]", "result": "109 % of control"}]}
{"compound": "CCCCCCC(=O)CCCCCCCCCCCCC(=O)OC", "values": [{"measurement": "T/C", "setting": "[2]", "result": "95 % of control"}, {"measurement": "T/C", "setting": "[3]", "result": "97 % of control"}, {"measurement": "T/C", "setting": "[4]", "result": "93 % of control"}]}
{"compound": "C1CC2CCCN2C1", "values": [{"measurement": "T/C", "setting": "endpoint: mean survival time, dose: 12.5 mg/kg/injection, schedule: Q04DX003 (ip), vehicle: acetone", "result": "96 % of control"}, {"measurement": "T/C", "setting": "endpoint: mean survival time, dose: 25.0 mg/kg/injection, schedule: Q04DX003 (ip), vehicle: acetone", "result": "102 % of control"}, {"measurement": "T/C", "setting": "endpoint: mean survival time, dose: 50.0 mg/kg/injection, schedule: Q04DX003 (ip), vehicle: acetone", "result": "97 % of control"}]}
{"compound": "Nc1nnc[se]1", "values": [{"measurement": "T/C", "setting": "endpoint: mean survival time, dose: 3.12 mg/kg/injection, schedule: Q01DX009 (ip), vehicle: saline with Tween-80", "result": "102 % of control and 104 % of control"}, {"measurement": "T/C", "setting": "endpoint: mean survival time, dose: 6.25 mg/kg/injection, schedule: Q01DX009 (ip), vehicle: saline with Tween-80", "result": "109 % of control and 110 % of control"}, {"measurement": "T/C", "setting": "endpoint: mean survival time, dose: 12.5 mg/kg/injection, schedule: Q01DX009 (ip), vehicle: saline with Tween-80", "result": "116 % of control and 117 % of control and 110 % of control"}, {"measurement": "T/C", "setting": "endpoint: mean survival time, dose: 25.0 mg/kg/injection, schedule: Q01DX009 (ip), vehicle: saline with Tween-80", "result": "120 % of control"}, {"measurement": "T/C", "setting": "endpoint: mean survival time, dose: 50.0 mg/kg/injection, schedule: Q01DX009 (ip), vehicle: saline with Tween-80", "result": "120 % of control and 98 % of control"}, {"measurement": "T/C", "setting": "[1]", "result": "105 % of control"}, {"measurement": "T/C", "setting": "endpoint: median survival time, dose: 6.25 mg/kg/injection, schedule: Q01DX009 (ip), vehicle: saline with Tween-80", "result": "106 % of control"}, {"measurement": "T/C", "setting": "endpoint: median survival time, dose: 12.5 mg/kg/injection, schedule: Q01DX009 (ip), vehicle: saline with Tween-80", "result": "109 % of control"}, {"measurement": "T/C", "setting": "endpoint: median survival time, dose: 25.0 mg/kg/injection, schedule: Q01DX009 (ip), vehicle: saline with Tween-80", "result": "108 % of control"}]}
{"compound": "CN(C)C(=O)C1C2C=CC(CCC2)C1C(=O)N(C)C", "note": "(configuration not stated)", "values": [{"measurement": "T/C", "setting": "endpoint: mean survival time, dose: 100.0 mg/kg/injection, schedule: Q04DX002 (ip), vehicle: saline", "result": "91 % of control"}, {"measurement": "T/C", "setting": "endpoint: mean survival time, dose: 200.0 mg/kg/injection, schedule: Q04DX002 (ip), vehicle: saline", "result": "88 % of control"}, {"measurement": "T/C", "setting": "endpoint: mean survival time, dose: 400.0 mg/kg/injection, schedule: Q04DX002 (ip), vehicle: saline", "result": "91 % of control"}]}
{"compound": "CC(=O)OCC(=O)[C@@]1(O)CC[C@H]2[C@@H]3CCC4=CC(=O)C=C[C@]4(C)[C@H]3C(=O)C[C@@]21C", "values": [{"measurement": "T/C", "setting": "endpoint: mean survival time, dose: 12.5 mg/kg/injection, schedule: Q04DX003 (ip), vehicle: Klucel (hydroxypropylcellulose) (HPC)", "result": "101 % of control"}, {"measurement": "T/C", "setting": "endpoint: mean survival time, dose: 25.0 mg/kg/injection, schedule: Q04DX003 (ip), vehicle: Klucel (hydroxypropylcellulose) (HPC)", "result": "109 % of control"}, {"measurement": "T/C", "setting": "endpoint: mean survival time, dose: 50.0 mg/kg/injection, schedule: Q04DX003 (ip), vehicle: Klucel (hydroxypropylcellulose) (HPC)", "result": "100 % of control"}]}
{"compound": "Nc1nc(-c2ccccc2)nc2[nH]ncc12", "values": [{"measurement": "T/C", "setting": "[5]", "result": "95 % of control"}, {"measurement": "T/C", "setting": "[6]", "result": "95 % of control"}, {"measurement": "T/C", "setting": "[7]", "result": "89 % of control"}]}
{"compound": "[O-]/[N+](=C\\c1ccccc1)C1CCCCC1", "values": [{"measurement": "T/C", "setting": "[5]", "result": "94 % of control"}, {"measurement": "T/C", "setting": "[6]", "result": "95 % of control"}, {"measurement": "T/C", "setting": "[7]", "result": "95 % of control"}]}
{"compound": "c1ccc(C[P+](c2ccccc2)(c2ccccc2)c2ccccc2)cc1", "values": [{"measurement": "T/C", "setting": "endpoint: mean survival time, dose: 0.63 mg/kg/injection, schedule: Q01DX009 (ip), vehicle: saline with Tween-80", "result": "89 % of control"}, {"measurement": "T/C", "setting": "endpoint: mean survival time, dose: 1.25 mg/kg/injection, schedule: Q01DX009 (ip), vehicle: saline with Tween-80", "result": "100 % of control"}, {"measurement": "T/C", "setting": "endpoint: mean survival time, dose: 2.5 mg/kg/injection, schedule: Q01DX009 (ip), vehicle: saline with Tween-80", "result": "93 % of control"}]}
{"compound": "O=C(Oc1ccn(C2OC(CO)C(O)C2O)c(=O)c1)C12CC3CC(CC(C3)C1)C2", "note": "(configuration not stated)", "values": [{"measurement": "T/C", "setting": "endpoint: median survival time, dose: 20.0 mg/kg/injection, schedule: Q01DX009 (ip), vehicle: saline + Tween-80 + alcohol", "result": "153 % of control"}, {"measurement": "T/C", "setting": "endpoint: median survival time, dose: 30.0 mg/kg/injection, schedule: Q01DX009 (ip), vehicle: saline + Tween-80 + alcohol", "result": "170 % of control"}, {"measurement": "T/C", "setting": "endpoint: median survival time, dose: 45.0 mg/kg/injection, schedule: Q01DX009 (ip), vehicle: saline + Tween-80 + alcohol", "result": "158 % of control"}]}
{"compound": "CCCCN1CCNCC1", "values": [{"measurement": "T/C", "setting": "endpoint: mean survival time, dose: 100.0 mg/kg/injection, schedule: Q04DX003 (ip), vehicle: saline", "result": "93 % of control"}, {"measurement": "T/C", "setting": "endpoint: mean survival time, dose: 200.0 mg/kg/injection, schedule: Q04DX003 (ip), vehicle: saline", "result": "94 % of control"}]}
{"compound": "CCCc1nc(N)[nH]c(=O)c1CCCCCCCCCCCc1ccccc1", "values": [{"measurement": "T/C", "setting": "endpoint: mean survival time, dose: 75.0 mg/kg/injection, schedule: Q01DX001 (ip), vehicle: saline with Tween-80", "result": "98 % of control"}, {"measurement": "T/C", "setting": "endpoint: mean survival time, dose: 150.0 mg/kg/injection, schedule: Q01DX001 (ip), vehicle: saline with Tween-80", "result": "97 % of control"}, {"measurement": "T/C", "setting": "endpoint: mean survival time, dose: 300.0 mg/kg/injection, schedule: Q01DX001 (ip), vehicle: saline with Tween-80", "result": "95 % of control"}]}
{"compound": "O=C1/C(=C\\c2ccc(Cl)cc2)SC(=S)N1/N=C/c1ccc(Cl)cc1", "values": [{"measurement": "T/C", "setting": "endpoint: mean survival time, dose: 25.0 mg/kg/injection, schedule: Q01DX001 (ip), vehicle: saline with Tween-80", "result": "97 % of control"}, {"measurement": "T/C", "setting": "endpoint: mean survival time, dose: 50.0 mg/kg/injection, schedule: Q01DX001 (ip), vehicle: saline with Tween-80", "result": "94 % of control"}, {"measurement": "T/C", "setting": "[5]", "result": "90 % of control"}, {"measurement": "T/C", "setting": "[6]", "result": "87 % of control"}]}
